One may read the inhibition as how much of the control response was suppressed.

The text below walks through data of ChEMBL document CHEMBL4622962, “Bromocriptine as a Novel Pharmacological Chaperone for Mucopolysaccharidosis IV A” (ACS Med Chem Lett, 2020).

Data set [1] has as its target T1, N-acetylgalactosamine-6-sulfatase (Homo sapiens) (UniProt P34059).
T1 sequence (whole entry): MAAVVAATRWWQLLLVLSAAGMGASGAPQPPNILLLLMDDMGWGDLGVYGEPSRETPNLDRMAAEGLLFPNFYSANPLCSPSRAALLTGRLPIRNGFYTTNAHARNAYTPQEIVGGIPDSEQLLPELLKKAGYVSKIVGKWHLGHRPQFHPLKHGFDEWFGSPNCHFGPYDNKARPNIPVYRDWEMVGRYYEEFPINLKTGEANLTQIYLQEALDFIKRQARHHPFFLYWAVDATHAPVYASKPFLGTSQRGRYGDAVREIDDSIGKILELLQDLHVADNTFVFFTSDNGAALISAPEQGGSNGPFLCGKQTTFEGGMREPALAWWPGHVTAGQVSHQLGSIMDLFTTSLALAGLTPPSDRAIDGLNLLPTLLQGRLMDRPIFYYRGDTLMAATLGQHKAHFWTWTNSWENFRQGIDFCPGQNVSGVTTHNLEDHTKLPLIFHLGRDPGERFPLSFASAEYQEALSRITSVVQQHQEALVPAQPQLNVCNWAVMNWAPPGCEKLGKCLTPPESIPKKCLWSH
As to the kind of experiment: Inhibition of recombinant human GALNS expressed in Pichia pastoris at 0.001 to 50 uM using 4MUGPS as substrate incubated for 18 hrs by fluorescence assay relative to control.

The target in data set [2] is T1, N-acetylgalactosamine-6-sulfatase (Homo sapiens). Briefly: Chaperone activity at recombinant human GALNS expressed in HEK293 cells assessed as fold increase in extracellular enzyme activity using 4MUGPS as substrate at 1 uM incubated for 48 hrs by fluorescence assay relative to control. The class given is cell-based.
Data set [3] has the same target. Briefly: Chaperone activity at recombinant human GALNS expressed in HEK293 cells assessed as fold increase in extracellular enzyme activity using 4MUGPS as substrate at 10 uM incubated for 48 hrs by fluorescence assay relative to control. In kind it is cell-based.
The species entered for data set [4] is Homo sapiens. Briefly: Chaperone activity at GALNS p.A393S mutant in mucopolysaccharidosis IVA patient-derived fibroblasts GM00958 assessed as enzyme activity using 4MUGPS as substrate at 0.001 to 10 uM incubated for 48 hrs by fluorescence assay.
The species named for data set [5] is Homo sapiens. As to the kind of experiment: Chaperone activity at GALNS p.R386C/p.F285 deletion mutant in mucopolysaccharidosis IVA patient-derived fibroblasts GM00593 assessed as fold increase in enzyme activity using 4MUGPS as substrate at 10 uM incubated for 48 hrs by fluorescence assay relative to control.
Data set [6] is filed under the species Homo sapiens. Briefly: Chaperone activity at GALNS p.R61W/p.W405_T406 deletion mutant in mucopolysaccharidosis IVA patient-derived fibroblasts GM01361 assessed as fold increase in enzyme activity using 4MUGPS as substrate at 0.1 uM incubated for 48 hrs by fluorescence assay relative to control.
For data set [7], the species on record is Homo sapiens. Briefly: Chaperone activity at GALNS p.R61W/p.W405_T406 deletion mutant in mucopolysaccharidosis IVA patient-derived fibroblasts GM01361 assessed as enzyme activity using 4MUGPS as substrate at 1 to 10 uM incubated for 48 hrs by fluorescence assay.
For data set [8], the target named is T1, N-acetylgalactosamine-6-sulfatase (Homo sapiens). As to the kind of experiment: Chaperone activity at GALNS in human fibroblasts assessed as change in lysosomal mass at 0.01 to 10 uM incubated for 36 hrs by deep red Lysotracker based flow cytometric analysis.
For data set [9], the species on record is Homo sapiens. As to the kind of experiment: Chaperone activity at GALNS p.R386C/p.F285 deletion mutant in mucopolysaccharidosis IVA patient-derived fibroblasts GM00593 assessed as reduction in lysosomal mass by measuring mean fluorescence intensity at 1 uM incubated for 36 hrs by deep red Lysotracker based flow cytometric analysis (reference value: 61.8 +/- 8.4%). Also noted: scale not given: the % may be the effect or the level left. For orientation: Flow cytometry measures light scatter and fluorescence of single cells or particles in a stream.

The species entered for data set [10] is Homo sapiens. As to the kind of experiment: Chaperone activity at GALNS p.R386C/p.F285 deletion mutant in mucopolysaccharidosis IVA patient-derived fibroblasts GM00593 assessed as reduction in lysosomal mass by measuring mean fluorescence intensity at 10 uM incubated for 36 hrs by deep red Lysotracker based flow cytometric analysis (reference value: 61.8 +/- 8.4%). Also noted: scale not given: the % may be the effect or the level left.

The species named for data set [11] is Homo sapiens. As to the kind of experiment: Chaperone activity at GALNS p.R61W/p.W405_T406 deletion mutant in mucopolysaccharidosis IVA patient-derived fibroblasts GM01361 assessed as reduction in lysosomal mass by measuring mean fluorescence intensity at 0.01 uM incubated for 36 hrs by deep red Lysotracker based flow cytometric analysis (reference value: 48.3 +/- 7.7%). Also noted: scale not given: the % may be the effect or the level left.

For data set [12], the species on record is Homo sapiens. As to the kind of experiment: Chaperone activity at GALNS p.R61W/p.W405_T406 deletion mutant in mucopolysaccharidosis patient-derived fibroblasts GM01361 assessed as reduction in lysosomal mass by measuring mean fluorescence intensity at 0.1 uM incubated for 36 hrs by deep red Lysotracker based flow cytometric analysis (reference value: 48.3 +/- 7.7%). Set-up: scale not given: the % may be the effect or the level left.

Data set [13] can be described thus: Total plasma concentration in parkinson's disease patients. The class given is ADME, cell-free. To be noted: human.
A short description of data set [14]: Protein binding in plasma of parkinson's disease patients. In kind it is ADME, cell-free. To be noted: human, read-out: PPB.

The structures appear in SMILES notation. Active and inactive are the calls of the source. The rule behind the calls is not given here.

On to `CC(C)C[C@H]1C(=O)N2CCC[C@H]2[C@]2(O)O[C@](NC(=O)[C@@H]3C=C4c5cccc6[nH]c(Br)c(c56)C[C@H]4N(C)C3)(C(C)C)C(=O)N12` [BROMOCRIPTINE], for which the inhibition in data set [1] came out at 30%. Also, the fold change (FC) in data set [2] came to 1.36; in data set [3], 1.48; in the data set filed under Homo sapiens [5], 1.52; in the data set filed under Homo sapiens [6], 1.5. Also, the result (in the data set filed under Homo sapiens [4]; in the data set listed under Homo sapiens [7]; in [8]) was inactive. The Activity in the data set listed under Homo sapiens [9] was found to be 18.2%; in the data set filed under Homo sapiens [10], 10.5%; in the data set listed under Homo sapiens [11] it was 11.7%; in the data set listed under Homo sapiens [12] it was 7.3%. For the same compound, the concentration in data set [13] fell in the range of 10 to 250 nM. Also, the fraction unbound in [14] is 0.04 to 0.1.
